# Target: T1, human kinase Mps-1 (Homo sapiens, UniProt P33981)
# T1 construct: N-terminally GST-tagged human full length recombinant Mps-1 kinase; GST (N); purchased Invitrogen, Karslruhe, Germany PV4071
# T1 sequence (P33981 1-857): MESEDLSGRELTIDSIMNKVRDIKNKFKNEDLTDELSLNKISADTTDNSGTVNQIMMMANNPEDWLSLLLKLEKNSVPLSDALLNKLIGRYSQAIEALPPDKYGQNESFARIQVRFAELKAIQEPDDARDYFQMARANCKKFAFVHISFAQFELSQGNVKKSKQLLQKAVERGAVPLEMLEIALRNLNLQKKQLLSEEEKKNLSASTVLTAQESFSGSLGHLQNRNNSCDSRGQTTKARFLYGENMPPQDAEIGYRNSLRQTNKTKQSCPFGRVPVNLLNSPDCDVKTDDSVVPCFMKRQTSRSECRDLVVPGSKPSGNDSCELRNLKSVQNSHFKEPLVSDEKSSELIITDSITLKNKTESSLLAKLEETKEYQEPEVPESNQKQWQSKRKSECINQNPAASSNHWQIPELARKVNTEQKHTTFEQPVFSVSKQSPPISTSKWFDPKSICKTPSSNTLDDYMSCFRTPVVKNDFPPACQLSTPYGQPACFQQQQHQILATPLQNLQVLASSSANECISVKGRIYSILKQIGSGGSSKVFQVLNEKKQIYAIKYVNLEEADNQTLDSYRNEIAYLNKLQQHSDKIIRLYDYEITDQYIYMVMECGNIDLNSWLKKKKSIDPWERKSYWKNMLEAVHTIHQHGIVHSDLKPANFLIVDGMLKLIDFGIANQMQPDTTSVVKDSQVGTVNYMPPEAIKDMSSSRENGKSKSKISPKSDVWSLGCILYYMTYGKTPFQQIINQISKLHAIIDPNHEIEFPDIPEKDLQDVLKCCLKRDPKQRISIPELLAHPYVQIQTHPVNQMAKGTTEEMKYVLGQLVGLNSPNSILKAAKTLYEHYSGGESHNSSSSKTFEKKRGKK
# Test: Mps-1 kinase assay (TR-FRET)
# Format: biochemical
# Details: Mps-1 TR-FRET kinase assay; avg; read-out: Mps1 avg (IC50 [mol/l])
# Procedure, shortened: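 Inhibition normalised between uninhibited reaction (0%) and enzyme-free wells (100%), using the blank-corrected TR-FRET 665/620 nm ratio after EDTA stop. Reaction: ~0.5 nM GST-Mps-1 full length, 10 μM ATP, 1 μM biotin-peptide, 60 min at 22 °C, after 15 min compound pre-binding, pH 7.7.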
row,IC50 [µM],Compound
1,≥ 20,"Cc1nsc(Nc2cnc3ccccc3n2)c1C(=O)Nc1ccc(OC2CCCN(C(=O)OC(C)(C)C)C2)nc1 (centres unmarked) [Example 31, tert-Butyl 3-{[5-({[3-methyl-5-(quinoxalin-2-ylamino)-1,2-thiazol-4-yl]carbonyl}-amino)pyridin-2-yl]oxy}piperidine-1-carboxylate]"
2,> 20,"Cc1nsc(Nc2cnc(C(F)(F)F)cn2)c1C(=O)Nc1ccc(OCC2CCN(CC(F)(F)F)CC2)nc1 [Example 346, 3-methyl-N-(6-{[1-(2,2,2-trifluoroethyl)piperidin-4-yl]methoxy}pyridin-3-yl)-5-{[5-(trifluoromethyl)pyrazin-2-yl]amino}-1,2-thiazole-4-carboxamide]"
3,> 20,"Cc1nsc(Nc2cnc(C(F)(F)F)cn2)c1C(=O)Nc1ccc(O[C@H]2CCN(CCC(F)(F)F)C[C@@H]2F)nc1 [Example 364, N-(6-{[(3S,4S)-3-fluoro-1-(3,3,3-trifluoropropyl)piperidin-4-yl]oxy}pyridin-3-yl)-3-methyl-5-{[5-(trifluoromethyl)pyrazin-2-yl]amino}-1,2-thiazole-4-carboxamide]"
4,> 20,"Cc1nsc(Nc2cnc(C(F)(F)F)cn2)c1C(=O)Nc1ccc(N2CCN(CC(F)(F)F)CC2)cn1 [Example 373, 3-methyl-N-{5-[4-(2,2,2-trifluoroethyl)piperazin-1-yl]pyridin-2-yl}-5-{[5-(trifluoromethyl)pyrazin-2-yl]amino}-1,2-thiazole-4-carboxamide]"
5,> 20,"Cc1nsc(Nc2cnc(C(F)(F)F)cn2)c1C(=O)Nc1ccc(O[C@H]2CCN(CC(F)F)C2)nc1 [Example 382, N-(6-{[(3S)-1-(2,2-difluoroethyl)pyrrolidin-3-yl]oxy}pyridin-3-yl)-3-methyl-5-{[5-(trifluoromethyl)pyrazin-2-yl]amino}-1,2-thiazole-4-carboxamide]"
6,≥ 20,"Cc1nsc(Nc2ccc(C#N)cn2)c1C(=O)Nc1ccc(OC2CCN(CC(F)(F)F)CC2)nc1 [Example 30, 5-[(5-Cyanopyridin-2-yl)amino]-3-methyl-N-(6-{[1-(2,2,2-trifluoroethyl)piperidin-4-yl]oxy}pyridin-3-yl)-1,2-thiazole-4-carboxamide]"
7,≥ 20,"Cc1nsc(Nc2cc(C#N)ccn2)c1C(=O)Nc1ccc(OC2CCCN(C(=O)OC(C)(C)C)C2)nc1 (centres unmarked) [Example 34, tert-Butyl 3({5-[({5-[(4-cyanopyridin-2-yl)amino]-3-methyl-1,2-thiazol-4-yl}-carbonyl)amino]pyridin-2-yl}oxy)piperidine-1-carboxylate]"
8,15,"Cc1nsc(Nc2cnc3ccccc3n2)c1C(=O)Nc1ccc(OC2CCCNC2)nc1 (centres unmarked) [Example 32, 3-Methyl-N-[6-(piperidin-3-yloxy)pyridin-3-yl]-5-(quinoxalin-2-ylamino)-1,2-thiazole-4-carboxannide]"
9,> 20,"Cc1nsc(Nc2cnc(C(F)(F)F)cn2)c1C(=O)Nc1ccc(OC[C@@H]2CCCN(CC(F)F)C2)nc1 [Example 375, N-(6-{[(3R)-1-(2,2-difluoroethyl)piperidin-3-yl]methoxy}pyridin-3-yl)-3-methyl-5-{[5-(trifluoromethyl)pyrazin-2-yl]amino}-1,2-thiazole-4-carboxamide]"
10,≥ 20,"Cc1nsc(Nc2cnc(C(F)(F)F)cn2)c1C(=O)Nc1ccc(F)c(OCC2CCCN(CC(F)F)C2)c1 (centres unmarked) [Example 334, N-(3-{[1-(2,2-difluoroethyl)piperidin-3-yl]methoxy}-4-fluorophenyl)-3-methyl-5-{[5-(trifluoromethyl)pyrazin-2-yl]amino}-1,2-thiazole-4-carboxamide]"
11,≥ 20,"Cc1nsc(Nc2ccc(C#N)cn2)c1C(=O)Nc1ccc(OC2CCN(CCF)CC2)nc1 [Example 29, 5-[(5-Cyanopyridin-2-yl)amino]-N-(6-{[1-(2-fluoroethyl)piperidin-4-yl]oxy}pyridin-3-yl)-3-methyl-1,2-thiazole-4-carboxamide]"
12,≥ 20,"Cc1nsc(Nc2cnc(C(F)(F)F)cn2)c1C(=O)Nc1ccc(OC2CCCN(CCF)C2)nc1 (centres unmarked) [Example 329, N-(6-{[1-(2-fluoroethyl)piperidin-3-yl]oxy}pyridin-3-yl)-3-methyl-5-{[5-(trifluoromethyl)pyrazin-2-yl]amino}-1,2-thiazole-4-carboxamide]"
13,≥ 20,"Cc1nsc(Nc2cnc(C(F)(F)F)cn2)c1C(=O)Nc1ccc(OCCN(C)CCF)nc1 [Example 348, N-(6-{2-[(2-fluoroethyl)(methyl)amino]ethoxy}pyridin-3-yl)-3-methyl-5-{[5-(trifluoromethyl)pyrazin-2-yl]amino}-1,2-thiazole-4-carboxamide]"
14,> 20,"Cc1nsc(Nc2cnc(C(F)(F)F)cn2)c1C(=O)Nc1ccc(C2CCN(CC(F)F)CC2)nc1 [Example 357, N-{6-[1-(2,2-difluoroethyl)piperidin-4 yl]pyridin-3-yl}-3-methyl-5-{[5-(trifluoromethyl)pyrazin-2-yl]amino}-1,2-thiazole-4-carboxamide]"
15,≥ 20,"Cc1nsc(Nc2cnc(C(F)(F)F)cn2)c1C(=O)Nc1ccc(OCC2CCCN(CC(F)(F)F)C2)nc1 (centres unmarked) [Example 326, 3-methyl-N-(6-{[1-(2,2,2-trifluoroethyl)piperidin-3-yl]methoxy}pyridin-3-yl)-5-{[5-(trifluoromethyl)pyrazin-2-yl]amino}-1,2-thiazole-4-carboxamide]"
16,> 20,"Cc1nsc(Nc2cnc(C(F)(F)F)cn2)c1C(=O)Nc1ccc(N2CCN(CCC(F)(F)F)CC2)nc1 [Example 361, 3-methyl-5-{[5-(trifluoromethyl)pyrazin-2-yl]amino}-N-{6-[4-(3,3,3-trifluoropropyl)piperazin-1-yl]pyridin-3-yl}-1,2-thiazole-4-carboxamide]"
17,≥ 20,"Cc1nsc(Nc2cncc(C(F)(F)F)n2)c1C(=O)Nc1ccc(F)c(OC2CCN(CCC(F)(F)F)CC2)c1 [Example 343, N-(4-fluoro-3-{[1-(3,3,3-trifluoropropyl)piperidin-4-yl]oxy}phenyl)-3-methyl-5-{[6-(trifluoromethyl)pyrazin-2-yl]amino}-1,2-thiazole-4-carboxamide]"
18,> 20,"Cc1nsc(Nc2cnc(C(F)(F)F)cn2)c1C(=O)Nc1ccc(O[C@@H]2CCN(CCC(F)(F)F)C[C@H]2F)nc1 [Example 368, N-(6-{[(3R,4R)-3-fluoro-1-(3,3,3-trifluoropropyl)piperidin-4-yl]oxy}pyridin-3-yl)-3-methyl-5-{[5-(trifluoromethyl)pyrazin-2-yl]amino}-1,2-thiazole-4-carboxamide]"
19,≥ 20,"Cc1nsc(Nc2cnc(C(F)(F)F)cn2)c1C(=O)Nc1ccc(OCCCN(C)CC(F)(F)F)nc1 [Example 354, 3-methyl-N-(6-{3-[methyl(2,2,2-trifluoroethyl)amino]propoxy}pyridin-3-yl)-5-{[5-(trifluoromethyl)pyrazin-2-yl]amino}-1,2-thiazole-4-carboxamide]"
20,> 20,"Cc1nsc(Nc2cnc(C(F)(F)F)cn2)c1C(=O)Nc1ccc(OCC2CCN(CCC(F)(F)F)CC2)nc1 [Example 347, 3-methyl-5-{[5-(trifluoromethyl)pyrazin-2-yl]amino}-N-(6-{[1-(3,3,3-trifluoropropyl)piperidin-4-yl]methoxy}pyridin-3-yl)-1,2-thiazole-4-carboxamide]"

# From patent US20170334899A1, “AMINO-SUBSTITUTED ISOTHIAZOLES” (Bayer Pharma Aktiengesellschaft, priority 2014, published 2017)
